Experiment [1] relates to pruritus associated with psoriasis vulgaris. Briefly: Phase 1b maximal use study: exploratory efficacy (I-NRS, PASI, IGA, BSA). It counts as in vivo, human. The source says: Efficacy Evaluations: Change from baseline at each study visit in the I-NRS; Change from baseline at each study visit in the Psoriasis Area and Severity Index ([…]) score; PASI-75: response defined as a reduction of ≥75% from baseline at each study visit on the PASI; PASI-50: response defined as a reduction of ≥50% from baseline at each study visit on the PASI; Change from baseline at each study visit in the Investigator Global Assessment (IGA); Proportion of subjects with a ≥1-grade decrease on the IGA at each study visit; Proportion of subjects with a ≥2-grade decrease on the IGA at each study visit; and Change from baseline at each study visit in BSA affected by psoriasis.
Subject Assessments—Itch Numeric Rating Scale: The I-NRS is a 1 item daily PRO measure that the subjects use to assess pruritus severity at its worst in the 24 hours prior to the assessment based on an 11-point numeric rating scale ranging from 0 (“no itching at all”) to 10 (“worst possible itching”). The I-NRS assesses overall pruritus severity. An I-NRS score of at least 4 is required to be eligible for the study. The investigator will evaluate subject eligibility based on itch associated with PV plaques at Screening. The Baseline measurement will be collected on Study Day 1 prior to study drug administration. The change from Baseline at each study visit will be determined.
Investigator Assessments: Investigator assessments include: BSA affected by psoriasis; IGA of overall psoriasis (Apremilast (Otezla) CDER Medical Review of Celgene NDA, 2014. Accessdata.fda.gov. Accessed Aug. 8, 2017.); and PASI (Fredriksson T, Pettersson U. Severe psoriasis—oral therapy with a new retinoid. Dermatologica. 1978; 157(4):238-244.).
Body Surface Area Affected by Psoriasis: Assessment of the percentage of a subject's BSA affected by psoriasis will be made by best estimates of the investigator, using the “handprint” method where 1%=1 subject handprint. At screening and baseline this should be ≥20% of BSA. The change from baseline BSA affected by psoriasis will be determined.
Investigator Global Assessment: The IGA is a site-based clinician-reported outcome measure that assesses the overall severity of psoriasis by evaluating induration (plaque elevation), erythema, and desquamation (scaling) on a 5-point scale from 0 to 4, where 0=Clear to 4=Severe. The investigator will make this assessment to calculate the overall improvement in psoriasis (the proportion of subjects achieving a rating of “Clear” or “Almost Clear” and at least a 2-point decrease [improvement] on the 5-point scale) using the IGA. The proportion of subjects achieving at least a 1-grade and 2-grade decrease from baseline will also be calculated.
Psoriasis Area and Severity Index: The PASI score is a site-based ClinRO by which a weighted sum of erythema, scaling, and induration/thickness scores over different regions of the body is determined, using the algorithm given in Fredriksson T, Pettersson U., Dermatologica. 1978; 157(4):238-244.). Each symptom will be scored on a 5-point scale from 0 to 4, where 0=Clear and 4=Very marked. The change from Baseline in the PASI score, and the percentages of subjects who have achieved a ≥75% or ≥50% reduction from baseline (PASI-75 and PASI-50, respectively), will be determined.

A further experiment concerns the target TrkA kinase (Homo sapiens, UniProt P04629).

Sequence of TrkA kinase (P04629 33-796): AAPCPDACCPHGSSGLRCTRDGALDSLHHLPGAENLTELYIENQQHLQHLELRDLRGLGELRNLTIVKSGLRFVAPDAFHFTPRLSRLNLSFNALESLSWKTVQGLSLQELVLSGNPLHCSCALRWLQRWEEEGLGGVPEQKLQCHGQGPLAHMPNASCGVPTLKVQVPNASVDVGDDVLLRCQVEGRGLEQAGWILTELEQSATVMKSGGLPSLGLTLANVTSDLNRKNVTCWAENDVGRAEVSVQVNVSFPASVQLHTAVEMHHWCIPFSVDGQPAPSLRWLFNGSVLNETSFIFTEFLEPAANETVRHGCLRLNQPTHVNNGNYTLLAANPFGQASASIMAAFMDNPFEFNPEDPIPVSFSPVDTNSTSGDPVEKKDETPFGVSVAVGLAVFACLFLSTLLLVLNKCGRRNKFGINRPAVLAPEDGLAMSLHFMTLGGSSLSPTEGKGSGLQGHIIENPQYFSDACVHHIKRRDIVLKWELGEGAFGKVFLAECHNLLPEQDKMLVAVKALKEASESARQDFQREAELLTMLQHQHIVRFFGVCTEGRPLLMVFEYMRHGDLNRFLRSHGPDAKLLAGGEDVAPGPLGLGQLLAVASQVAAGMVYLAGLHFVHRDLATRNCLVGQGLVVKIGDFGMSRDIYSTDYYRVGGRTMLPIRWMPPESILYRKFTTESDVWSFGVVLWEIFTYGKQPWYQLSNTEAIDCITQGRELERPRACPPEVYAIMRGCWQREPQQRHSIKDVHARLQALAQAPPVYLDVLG

Turning to “(9S, 10R, 12R)-10-(3′-mPEG2000-1′,3′-oxazolidine-2′,4′-dione)-2,3,9,10,11,12-hexahydro-9-methyl-1-oxo-9,12-epoxy-1H-diindolo[1,2,3-fg:3′,2′,1′-k,l]pyrrolo[3,4-i][1,6] benzodiazocine] [CT327]”, in experiment [1] (Week 4), the “IGA 1-grade, % of subjects” value is reported as “(30%)”; the “IGA 2-grade, % of subjects” value is on record as “(13.3%)”; the “NRS 3-grade, % of subjects” value is “(60.0%)”; the “NRS 50, % of subjects” value is listed as “(46.7%)”. For the same substance, in experiment [1] (Week 4), the “NRS (% change from baseline), mean” value is −41.35%; the “PASI 50, % of subjects” value is given as “(33.3%)”; the “PASI 75, % of subjects” value is reported as “(10.0%)”; the “PASI (change from baseline), mean” value was −6.44. The “NRS (change from baseline), mean” value in experiment [1] (Week 4, 0.5% SNA-120 (w/w) ointment twice daily, open label) is −3.4. The “Subjects with at least a 4-grade improvement in the Itch Numeric Rating Scale (I-NRS)” value in experiment [1] (post hoc analysis) is “approximately 57% of subjects”. Moreover, the “Inhibition of human keratinocyte proliferation in vitro” value in the experiment on human keratinocyte is on record as “clear inhibitory activity”. In addition, the “Inhibition of TrkA kinase” value on TrkA kinase was “inhibitor of TrkA kinase at nanomolar levels”.

The values above are taken from patent US20190209472A1, “FORMULATIONS FOR DERMAL DELIVERY OF POLYMER CONJUGATES OF INDOLOCARBAZOLE COMPOUNDS WITH REDUCED EXPOSURE” (Sienna Biopharmaceuticals, Inc., priority 2017, published 2019).
